Reference: patent US20260028336A1 (Arcus Biosciences, Inc., priority 2022, published 2026)

Experiments:
Cbl-b = target: T1, Cbl-b (Homo sapiens, UniProt Q13191); test: Cbl-b probe displacement HTRF binding assay; settings: 0.4 nM biotinylated Cbl-b, 150 nM BODIPY probe
T1 construct: biotin (biotinylated)
In short: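 Biotinylated Cbl-b was preincubated with compound for 60 min at room temperature in HEPES/NaCl/Triton/TCEP/BSA buffer. BODIPY probe was added for 15 min, followed by streptavidin-terbium, and the HTRF signal was read. Displacement was normalised to DMSO and no-protein controls, and affinity was obtained from a four-parameter dose-response fit.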

Jurkat cells = test: IL-2 secretion assay in CD3/CD28-activated Jurkat cells (AlphaLISA); format: cell-based; settings: Homo sapiens, CD3/CD28 T Cell Activator, 24 h, IL-2 AlphaLISA
In short: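 Jurkat cells (50,000/well) were preincubated 1 h at 37° C with compound in a 16-point 1:2 series spanning 10 μM to 300 pM final. Cells were then activated with CD3/CD28 T cell activator, and secreted IL-2 was read by AlphaLISA. EC50 came from 4-parameter logistic fits.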

T1 sequence (Q13191 whole entry, species assumed): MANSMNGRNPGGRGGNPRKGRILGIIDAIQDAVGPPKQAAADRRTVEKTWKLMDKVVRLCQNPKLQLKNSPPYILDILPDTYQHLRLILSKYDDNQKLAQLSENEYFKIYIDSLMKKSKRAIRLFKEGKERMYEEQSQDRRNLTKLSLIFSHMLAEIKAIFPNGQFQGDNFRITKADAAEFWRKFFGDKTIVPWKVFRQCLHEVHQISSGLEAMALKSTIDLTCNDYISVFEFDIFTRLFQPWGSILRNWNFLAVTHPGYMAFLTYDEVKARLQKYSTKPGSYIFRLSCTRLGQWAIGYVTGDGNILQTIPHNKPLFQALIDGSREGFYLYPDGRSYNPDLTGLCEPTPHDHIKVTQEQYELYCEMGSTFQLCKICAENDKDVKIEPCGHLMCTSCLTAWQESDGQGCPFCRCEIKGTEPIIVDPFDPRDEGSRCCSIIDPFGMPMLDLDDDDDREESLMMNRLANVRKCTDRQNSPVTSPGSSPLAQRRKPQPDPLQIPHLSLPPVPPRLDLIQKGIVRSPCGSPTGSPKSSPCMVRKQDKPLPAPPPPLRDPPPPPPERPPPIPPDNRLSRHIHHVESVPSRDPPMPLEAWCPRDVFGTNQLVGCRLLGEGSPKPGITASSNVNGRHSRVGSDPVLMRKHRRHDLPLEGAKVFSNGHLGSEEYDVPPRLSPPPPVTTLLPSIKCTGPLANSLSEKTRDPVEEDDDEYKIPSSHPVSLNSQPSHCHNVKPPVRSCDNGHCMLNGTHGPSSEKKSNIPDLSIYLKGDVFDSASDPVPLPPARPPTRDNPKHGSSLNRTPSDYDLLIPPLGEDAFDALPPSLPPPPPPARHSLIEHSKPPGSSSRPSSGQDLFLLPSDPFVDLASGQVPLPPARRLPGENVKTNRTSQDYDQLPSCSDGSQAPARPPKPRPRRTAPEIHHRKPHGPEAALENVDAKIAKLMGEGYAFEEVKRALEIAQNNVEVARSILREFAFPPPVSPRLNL

Row | IC50 (Cbl-b) [nM] | EC50 (Jurkat cells) [nM] | Structure (SMILES)
1 | < 100 | 100 to 1000 | C[C@H]1CCCN(Cc2cc3c(C4CC4)cn(-c4cccc(C5(c6nncn6C6CC6)CC6(CC6)C5)c4)c(=O)c3[nH]2)C1 [Example 144, 4-cyclopropyl-6-[3-[5-(4-cyclopropyl-1,2,4-triazol-3-yl)spiro[2.3]hexan-5-yl]phenyl]-2-[[(3S)-3-methylpiperidin-1-yl]methyl]-1H-pyrrolo[2,3-c]pyridin-7-one]
2 | < 100 | < 100 | CC(c1cccc(-n2cc(C3CC3)c3cc(CN4CCC[C@H](C)C4)[nH]c3c2=O)c1)c1nncn1C (stereo partly drawn) [Example 165, 4-cyclopropyl-2-[[(3S)-3-methylpiperidin-1-yl]methyl]-6-[3-[1-(4-methyl-1,2,4-triazol-3-yl)ethyl]phenyl]-1H-pyrrolo[2,3-c]pyridin-7-one]
3 | 100 to 1000 | 100 to 1000 | COC(C)(c1cccc(-n2cc(C3CC3)c3cc(CN4CCC[C@H](C)C4)[nH]c3c2=O)c1)c1nncn1C (stereo partly drawn) [Example 159, 4-cyclopropyl-6-[3-[1-methoxy-1-(4-methyl-1,2,4-triazol-3-yl)ethyl]phenyl]-2-[[(3S)-3-methylpiperidin-1-yl]methyl]-1H-pyrrolo[2,3-c]pyridin-7-one]
4 | < 100 | 1000 to 5000 | Cn1cnnc1C1(c2cccc(-n3cc(C4CC4)c4cc(CN5CCC[C@@H]5CO)[nH]c4c3=O)c2)CC(F)(F)C1 [Example 82, 4-cyclopropyl-6-{3-[3,3-difluoro-1-(4-methyl-4H-1,2,4-triazol-3-yl)cyclobutyl]phenyl}-2-{[(2R)-2-(hydroxymethyl)pyrrolidin-1-yl]methyl}-1H,6H,7H-pyrrolo[2,3-c]pyridin-7-one]
5 | < 100 | < 100 | C[C@H]1CCCN(Cc2cc3c(C4CC4)cn(-c4cccc([C@]5(c6nncn6C(F)F)C[C@H](OC(F)F)C5)c4)c(=O)c3[nH]2)C1 [Example 151, 2—{[(S)-3-methyl-1-piperidyl]methyl}-4-cyclopropyl-6-(m-{(1r,3S)-3-difluoromethoxy-1-[4-(difluoromethyl)-4H-1,2,4-triazol-3-yl]cyclobutyl}phenyl)-1,6-dihydro-1,6-diaza-7-indenone]
6 | < 100 | < 100 | C[C@H]1CCCN(Cc2cc3c(C4CC4)cn(-c4cccc([C@]5(c6nncn6C(F)F)C[C@H](F)C5)c4)c(=O)c3[nH]2)C1 [Example 148, 2—{[(S)-3-methyl-1-piperidyl]methyl}-4-cyclopropyl-6-(m-{1-[4-(difluoromethyl)-4H-1,2,4-triazol-3-yl]-3-fluorocyclobutyl}phenyl)-1,6-dihydro-1,6-diaza-7-indenone]
7 | 100 to 1000 | 100 to 1000 | C[C@H]1CCCN(Cc2cc3c(C4CC4)cn(-c4cccc(C5(Cn6ccnn6)CC(F)(F)C5)c4)c(=O)c3[nH]2)C1 [Example 123, 4-cyclopropyl-6-[3-[3,3-difluoro-1-(triazol-1-ylmethyl)cyclobutyl]phenyl]-2-[[(3S)-3-methylpiperidin-1-yl]methyl]-1H-pyrrolo[2,3-c]pyridin-7-one]
8 | < 100 | < 100 | CC1CC(c2cccc(-n3cc(C4CC4)c4cc(CN[C@@H]5CCCOC5)[nH]c4c3=O)c2)(c2nncn2C)C1 (stereo partly drawn) [Example 49, 4-cyclopropyl-6-{3-[3-methyl-1-(4-methyl-4H-1,2,4-triazol-3-yl)cyclobutyl]phenyl}-2-{[(oxan-3-yl)amino]methyl}-1H,6H,7H-pyrrolo[2,3-c]pyridin-7-one]
9 | < 100 | 1000 to 5000 | C[C@H]1CCCN(Cc2cc3c(C4CC4)cn(-c4cccc(C5(c6nncn6CC(F)(F)F)CC6(CC6)C5)c4)c(=O)c3[nH]2)C1 [Example 147, 4-Cyclopropyl-2-[[(3S)-3-methylpiperidin-1-yl]methyl]-6-[3-[5-[4-(2,2,2-trifluoroethyl)-1,2,4-triazol-3-yl]spiro[2.3]hexan-5-yl]phenyl]-1H-pyrrolo[2,3-c]pyridin-7-one]
10 | 100 to 1000 | 1000 to 5000 | CC1CC(c2cccc(-n3cc(C4CC4)c4cc(CN(C)S(C)(=O)=O)[nH]c4c3=O)c2)(c2nncn2C)C1 (stereo not drawn) [Example 69, N-[(4-cyclopropyl-7-oxo-6-{3-[(1r,3s)-3-methyl-1-(4-methyl-4H-1,2,4-triazol-3-yl)cyclobutyl]phenyl}-1H,6H,7H-pyrrolo[2,3-c]pyridin-2-yl)methyl]-N-methylmethanesulfonamide]
11 | < 100 | 100 to 1000 | CC1CC(c2cccc(-n3cc(C4CC4)c4cc(CN5CCC(F)(F)[C@H](C)C5)[nH]c4c3=O)c2)(c2nncn2C)C1 (stereo partly drawn) [Example 57, 4-cyclopropyl-2-{[(3R)-4,4-difluoro-3-methylpiperidin-1-yl]methyl}-6-{3-[3-methyl-1-(4-methyl-4H-1,2,4-triazol-3-yl)cyclobutyl]phenyl}-1H,6H,7H-pyrrolo[2,3-c]pyridin-7-one]
12 | 100 to 1000 | 1000 to 5000 | CC1CC(c2cccc(-n3cc(C4CC4)c4cc(CN5CCN(C)[C@H](C)C5)[nH]c4c3=O)c2)(c2nncn2C)C1 (stereo partly drawn) [Example 61, 4-cyclopropyl-2-{[(3R)-3,4-dimethylpiperazin-1-yl]methyl}-6-{3-[3-methyl-1-(4-methyl-4H-1,2,4-triazol-3-yl)cyclobutyl]phenyl}-1H,6H,7H-pyrrolo[2,3-c]pyridin-7-one]
13 | < 100 | 100 to 1000 | CC1CC(c2cccc(-n3cnc4c(C(F)(F)F)c(CN5CCC[C@H](C)C5)[nH]c4c3=O)c2)(c2nncn2C)C1 (mixture of isomers) [Example 143, 6—{[(3S)-3-Methylpiperidin-1-yl]methyl}-3-{3-[(1R,3S)-3-methyl-1-(4-methyl-4H-1,2,4-triazol-3-yl)cyclobutyl]phenyl}-7-(trifluoromethyl)-3H,4H,5H-pyrrolo[3,2-d]pyrimidin-4-one]
14 | < 100 | 1000 to 5000 | Cn1cnnc1[C@]1(c2cccc(-n3cc(C4CC4)c4cn[nH]c4c3=O)c2)C[C@H](C)C1 [Example 7, 4-cyclopropyl-6-{3-[(1r,3s)-3-methyl-1-(4-methyl-4H-1,2,4-triazol-3-yl)cyclobutyl]phenyl}-1H,6H,7H-pyrazolo[3,4-c]pyridin-7-one]
15 | 100 to 1000 | 1000 to 5000 | CC1CC(c2cccc(-n3cc(C4CC4)c4cc(CN5C[C@H](F)C[C@H](F)C5)[nH]c4c3=O)c2)(c2nncn2C)C1 (stereo partly drawn) [Example 67, 4-cyclopropyl-2-{[(3R,5S)-3,5-difluoropiperidin-1-yl]methyl}-6-{3-[(1r)-3-methyl-1-(4-methyl-4H-1,2,4-triazol-3-yl)cyclobutyl]phenyl}-1H,6H,7H-pyrrolo[2,3-c]pyridin-7-one]
16 | < 100 | 100 to 1000 | C[C@H]1CCCN(Cc2cc3c(C4CC4)cn(-c4cccc(C(O)(c5nncn5C)C(F)(F)F)c4)c(=O)c3[nH]2)C1 (stereo partly drawn) [Example 156]
17 | < 100 | 1000 to 5000 | Cn1cnnc1C1(c2cccc(-n3cc(C(F)(F)F)c4c(C#N)c[nH]c4c3=O)c2)CC2(CC2)C1 [Example 137, 6-{3-[5-(4-Methyl-4H-1,2,4-triazol-3-yl)spiro[2.3]hexan-5-yl]phenyl}-7-oxo-4-(trifluoromethyl)-1H,6H,7H-pyrrolo[2,3-c]pyridine-3-carbonitrile]
18 | < 100 | 100 to 1000 | C[C@H]1CCCN(Cc2cc3c(C4CC4)cn(-c4cccc(C(F)(F)c5nncn5C)c4)c(=O)c3[nH]2)C1 [Example 161, 4-cyclopropyl-6-[3-[difluoro-(4-methyl-1,2,4-triazol-3-yl)methyl]phenyl]-2-[[(3S)-3-methylpiperidin-1-yl]methyl]-1H-pyrrolo[2,3-c]pyridin-7-one]
19 | < 100 | 100 to 1000 | CO[C@H]1C[C@](c2cccc(-n3cc(C4CC4)c4cc(CN5CCC6(CC6)C5)[nH]c4c3=O)c2)(c2nncn2C)C1 [Example 100]
20 | 100 to 1000 | 100 to 1000 | Cn1cnnc1C1(c2cccc(-n3cc(C4CC4)c4cc(CN5CCC(F)(F)C5)[nH]c4c3=O)c2)CC(F)(F)C1 [Example 79, 4-cyclopropyl-6-{3-[3,3-difluoro-1-(4-methyl-4H-1,2,4-triazol-3-yl)cyclobutyl]phenyl}-2-[(3,3-difluoropyrrolidin-1-yl)methyl]-1H,6H,7H-pyrrolo[2,3-c]pyridin-7-one]
21 | < 100 | 1000 to 5000 | Cn1cnnc1[C@]1(c2cccc(-n3cc(C#N)c4cc[nH]c4c3=O)c2)C[C@H](C)C1 [Example 38, 7-oxo-6-{3-[(1r,3s)-3-methyl-1-(4-methyl-4H-1,2,4-triazol-3-yl)cyclobutyl]phenyl}-1H,6H,7H-pyrrolo[2,3-c]pyridine-4-carbonitrile]
22 | < 100 | < 100 | CC1CC(c2cccc(-n3cc(C4CC4)c4cc(CNC5(C)CCC5)[nH]c4c3=O)c2)(c2nncn2C)C1 (stereo not drawn) [Example 39, 4-cyclopropyl-6-{3-[3-methyl-1-(4-methyl-4H-1,2,4-triazol-3-yl)cyclobutyl]phenyl}-2-{[(1-methylcyclobutyl)amino]methyl}-1H,6H,7H-pyrrolo[2,3-c]pyridin-7-one]
23 | 1000 to 5000 | > 5000 | Cn1cnnc1[C@]1(c2cccc(-n3cc(CO)c4cn[nH]c4c3=O)c2)C[C@H](C)C1 [Example 142, 4-(Hydroxymethyl)-6-{3-[(1R,3S)-3-methyl-1-(4-methyl-4H-1,2,4-triazol-3-yl)cyclobutyl]phenyl}-1H,6H,7H-pyrazolo[3,4-c]pyridin-7-one]
24 | < 100 | < 100 | CC1CC(c2cccc(-n3cc(C4CC4)c4cc(CN5CCC6(CC6)C5)[nH]c4c3=O)c2)(c2nncn2C)C1 (stereo not drawn) [Example 63, 2-({5-azaspiro[2.4]heptan-5-yl}methyl)-4-cyclopropyl-6-{3-[(1r,3s)-3-methyl-1-(4-methyl-4H-1,2,4-triazol-3-yl)cyclobutyl]phenyl}-1H,6H,7H-pyrrolo[2,3-c]pyridin-7-one]
